# Measurements: a melting point compilation (Tetko et al.; mined from patent text by program, amines drawn as free bases though some values may be those of a salt)
row,SMILES,melting point
1,NC(=O)COc1ccccc1N,117 °C
2,CCCN1C(=O)c2ccccc2C1(SCc1ccccc1)c1ccc(Cl)cc1 (configuration not stated),132 to 133 °C
3,COc1ccc(S(=O)(=O)C(Cc2ccc3ccccc3c2)C(=O)NO)cc1 (configuration not stated),161 to 163 °C
4,N#Cc1c(N2CCN(C(=O)c3cccs3)CC2)c2cc(Cl)cnc2n(CC(=O)c2ccccc2)c1=O,316 °C
5,COc1cc(N2CCNCC2)cc(OC)c1OC,73 to 77 °C
6,CC(C)=CCOC1(C(F)(F)F)CN(C2CC2)C(=O)Nc2ccc(Cl)cc21 (configuration not stated),130 to 131 °C
7,COC(=O)c1coc2cc(Oc3ccnc(N)n3)ccc12,194 to 196 °C
8,CC(C)Sc1cc2c(cc1Cl)N=CNS2(=O)=O,231 to 232 °C
9,O=[N+]([O-])c1ccc(-c2nnc3ccc(N=CCN4CCCCC4)nn23)o1,207 to 209 °C
10,CN(C)c1ccc2nc(-c3cccc4ccccc34)[nH]c(=O)c2c1,254 to 255 °C
11,Cc1nc2cc(C)c(C)cc2c(=O)[nH]1,310 to 312 °C
12,CCCCOc1ccc(NC(=O)CNc2ccccc2F)cc1,92 to 94 °C
13,Clc1ccc(Nc2nnc(Cc3ccncn3)c3ccccc23)cc1,174 to 176 °C
14,CC1CC2C3CCC4=CC(=O)C=CC4(C)C3(F)C(O)CC2(C)C1(O)C(=O)COC(=O)c1cccnc1 (configuration not stated),262 to 265 °C
15,CCCc1ccc(NCc2ccc(N(C)C)cc2)cc1,74 to 76 °C
16,O=C(O)c1ccc(CCCC2SCC(=O)N2CCC2(O)CCCCC2)s1 (configuration not stated),122 to 123 °C
17,CS(=O)c1ccc(-n2cnc3ccc(-c4nnc(SCc5cccc(F)c5)o4)cc32)cc1 (configuration not stated),137 to 138 °C
18,Cc1oc(-c2ccc(F)cc2)cc1CO,80 to 82 °C
19,CC(=O)NC(C)c1ccc(CN2CCN(c3nccs3)CC2)cc1 (configuration not stated),136 to 137 °C
20,CN(c1cc(OC(F)(F)F)cc2cc(C3=NCC(CC(N)=O)S3)[nH]c12)S(=O)(=O)c1cccs1 (configuration not stated),202 to 203 °C
21,O=C(c1cc(Cl)ccc1Cl)c1ccccc1I,64 to 66 °C
22,C=CCN(CC=C)NC(=S)Nc1ccc(F)cc1,73 to 74 °C
23,O=C1c2ccccc2C(=O)N1CC(Cl)(CCl)c1ccccc1 (configuration not stated),114 to 115 °C
24,N#Cc1c(N2CCCC2)cccc1[N+](=O)[O-],111 to 113 °C
25,COC(=O)C(CCC(C(=O)OC)c1cc(OC)c(OC)c(OC)c1)c1cc(OC)c(OC)c(OC)c1 (configuration not stated),179 to 184 °C
26,Cc1nn(-c2ccc(F)cc2)cc1C(=O)Nc1ccc(OCC(C)(C)C)c(Br)c1,193 to 194 °C

row,SMILES,melting point
1,CSc1ccc(C2=C(c3ccc(CO)cc3)CCC2)cc1,82 to 85 °C
2,CCOC(=O)C(C)(C)n1c(=O)[nH]c2ccc(Cl)cc2c1=O,179 to 180 °C
3,CN1CCN(c2cc(NC(=O)OC(C)(C)C)c([N+](=O)[O-])cc2C#Cc2ccccc2)CC1,170 °C
4,O=C(NCCN1CCCC1)c1ccc(-c2ccc3nnn(Cc4ccc5ncccc5c4)c3n2)cc1F,183 to 186 °C
5,O=C(NC(=O)c1ccccc1)NC1CCCc2sccc21 (configuration not stated),189 to 194 °C
6,O=C1CCC(=O)N1Cc1nc2sc3c(c2c(-c2ccc(Cl)cc2)c1Cl)CCNC3,230 to 231 °C
7,CNC(=O)N(O)CC#Cc1cccc(C2=N[C@H](c3ccccc3)CO2)c1,163 to 165 °C
8,CCOc1cccc(CC(=O)O)c1OCCCc1cn(-c2ccc(C(F)(F)F)cn2)nc1OCC,114 to 115 °C
9,CN(C)CCC(O)c1ccc(Cl)s1 (configuration not stated),76 to 77 °C
10,Cn1c(=O)c2c(N)nc(N)nc2n(C)c1=O,> 300 °C
11,COc1cccc2c3c(c(C)nc12)CCN3c1ccccc1C,182 to 183 °C
12,C=CCC1(C(=O)NCc2ccccn2)c2ccccc2-c2ccccc21,110 to 111 °C
13,Cc1c(C(=O)c2ccc(Cl)c(S(N)(=O)=O)c2)c2ccccc2n1C,247 to 249 °C
14,CC1CC(C)(C)C(=O)C(C(=O)c2ccc(OC(F)F)cc2[N+](=O)[O-])C1=O (configuration not stated),108 to 110 °C
15,CC(O)c1cc2c(=O)n(NS(C)(=O)=O)c(=O)[nH]c2cc1C(F)(F)F (configuration not stated),263 to 268 °C
16,COc1ccc(C(=O)Nc2ccccc2CC2CCCCN2)cc1 (configuration not stated),108 to 109 °C
17,O=C1C(Br)CCN1c1cccc(C(F)(F)F)c1 (configuration not stated),79 to 83 °C
18,CCOCc1nc2c(N)nc3cc(Br)ccc3c2n1CC1CCN(C(=O)N2CCOCC2)CC1,198 to 199 °C
19,Cc1cc(C2=CCN(S(=O)(=O)C3(C(=O)O)CCOCC3)CC2)ccc1-c1ccccc1,211 to 213 °C
20,CC(C)(C)NCC(O)COc1ccc2oc(-c3ccc(OCc4ccccc4)c(OCc4ccccc4)c3)cc(=O)c2c1 (configuration not stated),156 to 157 °C
21,OCCc1coc2c(OC3CCCCO3)cccc12 (configuration not stated),74 to 76 °C
22,CCN(CC)C(=O)CNc1cc(N)ccc1OC,111 °C
23,CC(=O)n1c(=O)n(-c2ccc3c(c2)OCO3)c2ncccc21,211 to 212 °C
24,O=C(c1ccc(Br)cc1)c1ncccc1O,94 to 95 °C
25,COCCCn1ccc2c1CC(c1ccccc1Cl)C1C(=O)NC(=O)C21 (configuration not stated),75 to 90 °C
26,C(=Cc1ccccc1)C=NC1CCOc2ccccc21 (configuration not stated),106 to 107 °C

row,SMILES,melting point
1,CCCCCCCCc1c(C)[nH]c(C)c(C#N)c1=O,205 to 206 °C
2,CCOC(=O)c1c(N2CCN(C)CC2)c2cc(C)ccc2n(-c2ccccc2)c1=O,188 °C
3,O=C1CCC(N2Cc3c(OCc4ccc(CN5CCSCC5)cc4)cccc3C2=O)C(=O)N1 (configuration not stated),134 to 136 °C
4,OCc1ccc(C2=CCCCC2)cc1,70 to 71 °C
5,COC1(c2ccc(F)cc2)CCC(=O)CC1,57 to 59 °C
6,COc1ccc(C(O)c2ccc(C(=O)N(C3CCCC3)C3CCCC3)cc2)cc1OC (configuration not stated),137 to 138 °C
7,COC(=O)c1ccc(NC(C)=O)cc1OC,130 to 132 °C
8,Nc1cc(-n2c(=O)oc3c(c2=O)CCC3)c(F)cc1Cl,93 °C
9,CS(=O)(=O)OCc1cc(-c2ccc3c(c2)CCO3)nn(CC=Cc2ccc(Cl)cc2)c1=O,135 to 140 °C
10,Cc1sc2nc3ccc(C(=O)O)cn3c(=O)c2c1C,364 to 368 °C
11,O=C(NCCc1ccc(OCc2ccccc2)c(OCc2ccccc2)c1CCc1cccc(OCc2ccccc2)c1)C(F)(F)F,142 to 144 °C
12,CCN(CC)c1ccc(-n2c(CC(=O)O)c(C(=O)O)c3cc(Oc4ccc(Cl)cc4)ccc32)cc1,210 °C
13,CCOC(=O)NC(=S)NC(C)C,52.5 to 54 °C
14,COc1ccc2c(c1)-c1c(OC)ccc3c1C(C2=O)N(C)CC3 (configuration not stated),162 to 164 °C
15,C=CCOC(=O)Cc1cccc(NC(=O)NCC(=O)N(CC(=O)OC(C)(C)C)c2ccccc2C(=O)c2ccccc2)c1,122 to 124 °C
16,COc1cccc(-c2cccc(C(N)=O)c2)c1,138 to 140 °C
17,N#Cc1c(Br)[nH]c(Br)c1Br,151 to 152 °C
18,Cc1cc(Oc2cc(F)ccc2[N+](=O)[O-])n[nH]1,95 to 97 °C
19,O=C1N=CN(CC2CCCCC2)C12CCN(Cc1ccccc1)CC2,117 to 118 °C
20,CCCN(c1cc(C)ccn1)c1cccc2c1OC[C@H]2Nc1ccc2c(c1)OC[C@H]2CC(=O)O,146 °C
21,CSc1nc(C)nc(N)n1,161 to 163 °C
22,Nc1nc2c(s1)CCN(CC=Cc1ccc3ccccc3c1)CC2,164 to 165 °C
23,Cc1[nH]c2ccc(F)cc2c1C(=O)Nc1ccc(OCC(C)(C)C)c(C#N)c1,169 to 171 °C
24,COc1ccc(-c2cccs2)cc1,111 °C
25,O=C(Nc1ccc(Cl)cn1)c1cc(Cl)ccc1NCC1CCN(C(=O)N2CCOCC2)CC1,105 to 107 °C
26,Cc1ccc2c(c1)c1cc(-c3ccc(Cl)cc3Cl)c(=O)n(C)c1n2CC#N,270 °C

row,SMILES,melting point
1,Cn1ncnc1COc1nn2c(-c3ccccc3F)nncc2c1-c1cccs1,196 to 197 °C
2,CCOC(=O)C1=C(c2ccc(OC)c(OC)c2)c2ccccc2C1=O,130 °C
3,CCCCCCCCc1ccccc1CCC(NC(C)=O)(C(=O)OCC)C(=O)OCC,37 to 38 °C
4,CCCCCCCCc1ccc(C=CCO)cc1,30 °C
5,COC(=O)c1cc(OC(C)C)nn1Cc1ccc(Cl)cc1Cl,89 to 90 °C
6,Cn1c2cc3ccccc3nc2c2c(Cl)cccc21,228 to 230 °C
7,C#CCOc1c(Cl)cc(Cl)cc1C(=O)NCC1CCCN1C1CCCCC1 (configuration not stated),84 to 85 °C
8,OC1CSC(Oc2cccc(-c3cncnc3)c2)C(O)C1O (configuration not stated),241 °C
9,O=[N+]([O-])c1ccc2oc(Cc3ccccc3)cc2c1,100 °C
10,C[C@@H]1c2cccn2-c2ccc(F)cc2N1C(=O)c1ccc(O)cc1,125 to 129 °C
11,O=C(O)Cc1ccc(-c2ccc(C(F)(F)F)cc2)cc1,158 to 160 °C
12,CC(=O)Nc1ccc(C(=O)O)c(OC(C)=O)c1,191 to 193 °C
13,COc1c(Nc2ncc(Cl)c(Nc3ccccc3S(=O)(=O)N3CCC(O)C3)n2)ccc2c1CCCC(NCCO)C2 (configuration not stated),90 to 92 °C
14,C[C@@H]1Cc2ccsc2[C@H](C)N1CCNC(=O)c1ccc(F)cc1 (relative stereo),110 to 114 °C
15,COc1cc(-c2ccc3cc4c(cc3c2)C(C)(C)CCC4(C)C)ccc1C(=O)O,177 to 178 °C
16,Cc1cc(NCCNCC(O)COc2ccccc2)n2ncnc2n1 (configuration not stated),126 to 127 °C
17,CN1CCN(CCCc2c[nH]c(-c3ccc(F)cc3)c2-c2ccncc2)CC1,190 to 192 °C
18,CCCC1CCC2(C)C(=CCC3C4CCC(=O)C4(C)CCC32)C1 (configuration not stated),103 to 105 °C
19,O=C1CCC(=O)N1[C@H]1CC[C@H](Nc2nccc(-n3nnc4ccccc43)n2)CC1,205 to 210 °C
20,O=C1NCCc2c(-c3ccc(Cl)c(C(F)(F)F)c3)[nH]c3cccc1c23,118 to 119 °C
21,O=c1cc(CO)occ1OCCC12CC3CC(CC(C3)C1)C2,155 to 157 °C
22,NC(=O)OC(=O)[C@@H]1Cc2ccccc2CN1C(=O)OCc1ccccc1,136 to 138 °C
23,Cn1cc(-c2ccccc2)c(=O)c(-c2ccccc2F)c1,165 °C
24,CNC(=C[N+](=O)[O-])NCCSCc1nc(CN(C)C)sc1C,104 to 106 °C
